Test results from patent US20220117938A1, “COMBINATON THERAPY WITH A DON PRODRUG AND AN IMMUNE CHECKPOINT INHIBITOR” (DRACEN PHARMACEUTICALS, INC., priority 2019, published 2022).

Test system: MC-38 tumors
Experiment: Anti-tumor efficacy of Compound 1 in the subcutaneous MC-38 model: schedule comparison (Example 3)
Format: in vivo, Mus musculus
Conditions: for MST: endpoint tumor volume 2000 mm^3
Protocol: Female C57BL/6 mice were inoculated subcutaneously at right flank with MC-38 cells for tumor development. Six days after tumor inoculation, 64 mice with tumor size ranging from 50-100 mm^3 (average tumor size 71 mm^3) were selected and assigned into 8 groups using stratified randomization with 8 mice per group based upon their tumor volumes. The treatments were started from the day of randomization (defined as D0), Group 1 was treated with Vehicle (Tween 80:Ethanol:Saline—5:5:90 v/v/v), S.C. QD*20 days, Group 2 was treated with Compound 1 at 1 mpk S.C. QD*28 days, Group 3 was treated with Compound 1 at 0.5 mpk S.C. QD*28 days, Group 4 was treated with Compound 1 at 1.4 mpk S.C. 5-days ON 2-days OFF×4 cycles, Group 5 was treated with Compound 1 at 0.7 mpk S.C. 5-days ON 2-days OFF×4 cycles, Group 6 was treated with Compound 1 at 3 mpk qd×5, followed by 1 mpk qd×23, S.C. QD, Group 7 was treated with Compound 1 at 1.5 mpk qd×5, followed by 0.5 mpk qd×23, S.C. QD and Group 8 was treated with Compound 1 at 1.4 mpk 10-days ON 4-days OFF×2 cycles, S.C.
Species: Mus musculus; Strain: C57BL/6; Age: 6-8 weeks; Sex: female; Body weight (at treatment start): 16-20 g.
The MC-38 tumor cells were maintained in vitro as a monolayer culture in DMEM medium supplemented with 10% heat inactivated fetal bovine serum and 100 μg/mL penicillin streptomycin at 37° C. in an atmosphere of 5% CO2 in air. The tumor cells were routinely subcultured twice weekly by trypsin-EDTA treatment. The cells growing to a confluency around 70%-80% were harvested and counted for tumor inoculation. The cultured MC-38 were harvested, re-suspended in base medium at a density of 1×10^7 cells/mL with viability>90%. Each mouse was inoculated subcutaneously at the right flank with 1×10^6 cells in 0.1 ml base medium for tumor development.
The treatments were started on day 6 after tumor inoculation when the tumor size reached 50-100 mm^3 (average tumor size 71 mm^3). Each group consisted of 8 tumor-bearing mice. The testing article was administrated to the mice at a dosing volume of 10 mL/Kg according to the predetermined regimen as shown in Table 3-1.
Tumor sizes were measured three times a week in two dimensions using a caliper, and the volume expressed in mm^3 using the formula: V=0.5 a×b^2 where a and b are the long and short diameters of the tumor, respectively. The tumor sizes were then used for the calculations of both tumor growth inhibition (TGI) and T/C values.
TGI is calculated for each group using the formula: […]
TVTreatment_DayN is the average tumor volume of a treatment group on a given day, TVTreatment_Day0 is the average tumor volume of the treatment group on the first day of treatment, TVVehicle_DayN is the average tumor volume of the vehicle control group on a given day, and TVVehicle_Day0 is the average tumor volume of the vehicle group on the first day of treatment.
The T/C value (in percent) is an indication of antitumor effectiveness, T/C (%)=RTVTreatment/RTVControl×100% (RTVTreatment: the mean RTV of the treatment group; RTVControl: the mean RTV of the vehicle treated group). RTV (relative tumor volume)=TVDayN/TVDay0. TVDayN and TVDay0 is the tumor volume on day N and Day 0 respectively. T/C (%)≤42% is considered as significant antitumor activity and <10% is considered as highly significant antitumor activity by the National Cancer Institute criteria.
Relative change of body weight (RCBW) of each mouse was calculated according to the following formula: […]
Animal survival curve: When an individual animal reached to the termination endpoint (TV>2000 mm^3), the mouse was euthanized. The time from treatment initiation to the termination was deemed as its survival time. Survival curve was plotted by Kaplan-Meier method. Median survival time (MST) was calculated for each group. Increase of life span (ILS) was calculated according to the following formula: […]
ILS (%)>25% is considered as a biologically significant survival benefit. […]

[1] = 0.7 mpk S.C. 5-days ON 2-days OFF
[2] = 1.4 mpk days ON 2-days OFF x 4 cycles
[3] = 1.5 mpk qdx5, followed by 0.5 mpk qdx23
[4] = 3 mpk qdx5, followed by 1 mpk qdx23
[5] = Day 13, 0.7 mpk S.C. 5-days ON 2-days OFF
[6] = Day 13, 1.4 mpk 10-days ON 4-days OFF
[7] = Day 13, 1.4 mpk days ON 2-days OFF x 4 cycles
[8] = Day 13, 1.5 mpk qdx5, followed by 0.5 mpk qdx23
[9] = Day 13, 3 mpk qdx5, followed by 1 mpk qdx23

For CC(=O)N[C@@H](Cc1c[nH]c2ccccc12)C(=O)N[C@@H](CCC(=O)C=[N+]=[N-])C(=O)OC(C)C [Compound 1, Isopropyl (S)-2-((S)-2-acetamido-3-(1H-indol-3-yl)propanamido)-6-diazo-5-oxohexanoate], which ILS (0.5 mpk QD*28 days) is on record?
The ILS was 126%.

What about the “RTV at day 13” value (0.5 mpk QD*28 days) of the same compound?
Its value is 0 ± 0.

And the MST (0.5 mpk QD*28 days)?
Its MST is 43 days.

What about the ILS [1] of the same compound?
Its ILS is 208%.

What about the “RTV at day 13” value [1] of the same compound?
The value was 0 ± 0.

What about the MST [1] of the same compound?
The MST was 58.5 days.

And the ILS (1 mpk QD*28 days)?
Its ILS is 126%.

What about the “RTV at day 13” value (1 mpk QD*28 days) of the same compound?
Its value is 0 ± 0.

What about the MST (1 mpk QD*28 days) of the same compound?
Its MST is 43 days.

What about the ILS (1.4 mpk 10-days ON 4-days OFF) of the same compound?
Its ILS is 121%.

And the “RTV at day 13” value (1.4 mpk 10-days ON 4-days OFF)?
Its value is 0 ± 0.

What about the MST (1.4 mpk 10-days ON 4-days OFF) of the same compound?
Its MST is 42 days.

What about the ILS [2] of the same compound?
The ILS was 153%.

What about the “RTV at day 13” value [2] of the same compound?
The value was 0 ± 0.

And the MST [2]?
The MST was 48 days.

What about the ILS [3] of the same compound?
Its ILS is 121%.

What about the “RTV at day 13” value [3] of the same compound?
The value was 0 ± 0.

What about the MST [3] of the same compound?
The MST was 42 days.

What about the ILS [4] of the same compound?
Its ILS is 134%.

And the “RTV at day 13” value [4]?
The value was 0 ± 0.

What about the MST [4] of the same compound?
Its MST is 44.5 days.

What about the “Tumor volume (Mean ± SEM)” value (Day 11, Group 2: 1 mg/kg qdx28, sc) of the same compound?
Its value is 15 ± 3 mm^3.

And the “Tumor volume (Mean ± SEM)” value (Day 11, Group 3: 0.5 mg/kg qdx28, sc)?
The value was 29 ± 3 mm^3.

What about the “Tumor volume (Mean ± SEM)” value (Day 11, Group 4: 1.4 mg/kg 5-days ON 2-days OFF x 4 cycles, sc) of the same compound?
Its value is 14 ± 2 mm^3.

And the “Tumor volume (Mean ± SEM)” value (Day 11, Group 5: 0.7 mg/kg 5-days ON 2-days OFF x 4 cycles, sc)?
The value was 20 ± 4 mm^3.

What about the “Tumor volume (Mean ± SEM)” value (Day 11, Group 6: 3 mpk qdx5 followed by 1 mpk qdx23, sc) of the same compound?
The value was 24 ± 2 mm^3.

What about the “Tumor volume (Mean ± SEM)” value (Day 11, Group 7: 1.5 mpk qdx5 followed by 0.5 mpk qdx23, sc) of the same compound?
The value was 21 ± 2 mm^3.

What about the “Tumor volume (Mean ± SEM)” value (Day 11, Group 8: 1.4 mg/kg 10-days ON 4-days OFF x 2 cycles, sc) of the same compound?
The value was 28 ± 4 mm^3.

What about the T/C (Day 13, 0.5 mpk QD*28 days) of the same compound?
Its T/C is 0%.

What about the TGI (Day 13, 0.5 mpk QD*28 days) of the same compound?
Its TGI is 103.48%.

And the T/C [5]?
The T/C was 0%.

And the TGI [5]?
The TGI was 104.42%.

And the T/C (Day 13, 1 mpk QD*28 days)?
Its T/C is 0%.

And the TGI (Day 13, 1 mpk QD*28 days)?
Its TGI is 104.87%.

What about the T/C [6] of the same compound?
The T/C was 0%.

And the TGI [6]?
The TGI was 104.10%.

And the T/C [7]?
Its T/C is 0%.

And the TGI [7]?
The TGI was 104.49%.

And the T/C [8]?
The T/C was 0%.

What about the TGI [8] of the same compound?
The TGI was 104.24%.

What about the T/C [9] of the same compound?
The T/C was 0%.

What about the TGI [9] of the same compound?
The TGI was 104.29%.

What about the “Tumor volume (Mean ± SEM)” value (Day 13, Group 2: 1 mg/kg qdx28, sc, 1 mg/kg) of the same compound?
Its value is 5 ± 2 mm^3.

And the “Tumor volume (Mean ± SEM)” value (Day 13, Group 3: 0.5 mg/kg qdx28, sc, 0.5 mg/kg)?
The value was 24 ± 2 mm^3.

What about the “Tumor volume (Mean ± SEM)” value (Day 13, Group 4: 1.4 mg/kg 5-days ON 2-days OFF x 4 cycles, sc, 1.4 mg/kg) of the same compound?
Its value is 11 ± 3 mm^3.

What about the “Tumor volume (Mean ± SEM)” value (Day 13, Group 5: 0.7 mg/kg 5-days ON 2-days OFF x 4 cycles, sc, 0.7 mg/kg) of the same compound?
The value was 13 ± 4 mm^3.

What about the “Tumor volume (Mean ± SEM)” value (Day 13, Group 6: 3 mpk qdx5 followed by 1 mpk qdx23, sc) of the same compound?
Its value is 14 ± 3 mm^3.

And the “Tumor volume (Mean ± SEM)” value (Day 13, Group 7: 1.5 mpk qdx5 followed by 0.5 mpk qdx23, sc)?
The value was 15 ± 3 mm^3.

And the “Tumor volume (Mean ± SEM)” value (Day 13, Group 8: 1.4 mg/kg 10-days ON 4-days OFF x 2 cycles, sc, 1.4 mg/kg)?
Its value is 17 ± 4 mm^3.

And the “Tumor volume (Mean ± SEM)” value (Day 15, Group 2: 1 mg/kg qdx28, sc)?
Its value is 1 ± 1 mm^3.

And the “Tumor volume (Mean ± SEM)” value (Day 15, Group 3: 0.5 mg/kg qdx28, sc)?
Its value is 17 ± 3 mm^3.

What about the “Tumor volume (Mean ± SEM)” value (Day 15, Group 4: 1.4 mg/kg 5-days ON 2-days OFF x 4 cycles, sc) of the same compound?
The value was 2 ± 1 mm^3.

What about the “Tumor volume (Mean ± SEM)” value (Day 15, Group 5: 0.7 mg/kg 5-days ON 2-days OFF x 4 cycles, sc) of the same compound?
The value was 6 ± 3 mm^3.

What about the “Tumor volume (Mean ± SEM)” value (Day 15, Group 6: 3 mpk qdx5 followed by 1 mpk qdx23, sc) of the same compound?
The value was 6 ± 2 mm^3.

What about the “Tumor volume (Mean ± SEM)” value (Day 15, Group 7: 1.5 mpk qdx5 followed by 0.5 mpk qdx23, sc) of the same compound?
The value was 9 ± 2 mm^3.

What about the “Tumor volume (Mean ± SEM)” value (Day 15, Group 8: 1.4 mg/kg 10-days ON 4-days OFF x 2 cycles, sc) of the same compound?
Its value is 14 ± 3 mm^3.

And the “Tumor volume (Mean ± SEM)” value (Day 18, Group 2: 1 mg/kg qdx28, sc)?
Its value is 1 ± 0 mm^3.

And the “Tumor volume (Mean ± SEM)” value (Day 18, Group 3: 0.5 mg/kg qdx28, sc)?
Its value is 10 ± 2 mm^3.

And the “Tumor volume (Mean ± SEM)” value (Day 18, Group 4: 1.4 mg/kg 5-days ON 2-days OFF x 4 cycles, sc)?
The value was 0 ± 0 mm^3.

What about the “Tumor volume (Mean ± SEM)” value (Day 18, Group 5: 0.7 mg/kg 5-days ON 2-days OFF x 4 cycles, sc) of the same compound?
Its value is 3 ± 1 mm^3.

What about the “Tumor volume (Mean ± SEM)” value (Day 18, Group 6: 3 mpk qdx5 followed by 1 mpk qdx23, sc) of the same compound?
The value was 7 ± 3 mm^3.

And the “Tumor volume (Mean ± SEM)” value (Day 18, Group 7: 1.5 mpk qdx5 followed by 0.5 mpk qdx23, sc)?
The value was 8 ± 2 mm^3.

And the “Tumor volume (Mean ± SEM)” value (Day 18, Group 8: 1.4 mg/kg 10-days ON 4-days OFF x 2 cycles, sc)?
The value was 8 ± 3 mm^3.

And the “Tumor volume (Mean ± SEM)” value (Day 20, Group 2: 1 mg/kg qdx28, sc)?
The value was 1 ± 0 mm^3.
